Values joined by “and” are separate entries in the source; they are usually repeats but may differ in a detail not shown here. Equal entries are not always repeated.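 Each compound was tested at five concentrations against cells in 96-well plates for 48 hours. The concentration for 50% growth inhibition is given as GI50. TGI is the concentration that stops growth completely.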
Tests used:
Assay in all cases: NCI tumour cell line growth inhibition, 48 h; in the data active = GI50 below about 0.43 µM; inactive = the rest
A498 renal = test system: A498 renal
A549 NSCLC = test system: A549 NSCLC
HCT-116 colon = test system: HCT-116 colon
IGROV1 ovarian = test system: IGROV1 ovarian
LOX IMVI melanoma = test system: LOX IMVI melanoma
SF-295 CNS = test system: SF-295 CNS
SK-MEL-5 melanoma = test system: SK-MEL-5 melanoma
SN12C renal = test system: SN12C renal
TK-10 renal = test system: TK-10 renal
UACC-62 melanoma = test system: UACC-62 melanoma

CC1(C)N=C(N)N=C(N)N1c1ccc(CCC(=O)Nc2ccc(S(=O)(=O)F)cc2)c(Cl)c1
> 86.5 µM: TGI (IGROV1 ovarian)
inactive: GI50 (A498 renal) 61.9 µM | GI50 (A549 NSCLC) 0.517 µM | GI50 (SF-295 CNS) 1.09 µM | GI50 (SK-MEL-5 melanoma) 0.591 µM | GI50 (SN12C renal) 0.487 µM | GI50 (TK-10 renal) 0.604 µM
active: GI50 (HCT-116 colon) 0.268 µM | GI50 (IGROV1 ovarian) 0.0551 µM | GI50 (LOX IMVI melanoma) 0.402 µM | GI50 (UACC-62 melanoma) 0.287 µM
> 100 µM: TGI (A498 renal) | TGI (A549 NSCLC) | TGI (HCT-116 colon) | TGI (LOX IMVI melanoma) | TGI (SF-295 CNS) | TGI (SK-MEL-5 melanoma) | TGI (SN12C renal) | TGI (TK-10 renal) | TGI (UACC-62 melanoma)

O=C(Oc1ccc[nH]c1=O)c1cc([N+](=O)[O-])cc([N+](=O)[O-])c1
> 100 µM: TGI (A498 renal) | TGI (A549 NSCLC) | TGI (HCT-116 colon) | TGI (IGROV1 ovarian) | TGI (LOX IMVI melanoma) | TGI (SF-295 CNS) | TGI (SK-MEL-5 melanoma) | TGI (SN12C renal) | TGI (TK-10 renal) | TGI (UACC-62 melanoma)
inactive: GI50 (A498 renal) > 100 µM | GI50 (A549 NSCLC) > 100 µM | GI50 (HCT-116 colon) > 100 µM | GI50 (IGROV1 ovarian) > 100 µM | GI50 (LOX IMVI melanoma) > 100 µM | GI50 (SF-295 CNS) 26.6 µM | GI50 (SK-MEL-5 melanoma) 34.3 µM | GI50 (SN12C renal) > 100 µM | GI50 (TK-10 renal) > 100 µM | GI50 (UACC-62 melanoma) 20.9 µM

CC(C)C(O)(C(C)C)C(C)C
> 100 µM: TGI (A498 renal) | TGI (A549 NSCLC) | TGI (HCT-116 colon) | TGI (IGROV1 ovarian) | TGI (LOX IMVI melanoma) | TGI (SF-295 CNS) | TGI (SK-MEL-5 melanoma) | TGI (SN12C renal) | TGI (TK-10 renal) | TGI (UACC-62 melanoma)

O=C1C=CC(=O)C2C1C1(Cl)C(Cl)=C(Cl)C2(Cl)C1(Cl)Cl (stereo not given)
16.2 µM: TGI (LOX IMVI melanoma)
inactive: GI50 (A498 renal) 1.46 µM | GI50 (A549 NSCLC) 5.5 µM | GI50 (HCT-116 colon) 3.51 µM | GI50 (IGROV1 ovarian) 2.92 µM | GI50 (LOX IMVI melanoma) 4.05 µM | GI50 (SF-295 CNS) 1.91 µM | GI50 (SK-MEL-5 melanoma) 6.61 µM | GI50 (SN12C renal) 6 µM | GI50 (TK-10 renal) 8.07 µM | GI50 (UACC-62 melanoma) 5.19 µM
19.2 µM: TGI (IGROV1 ovarian) | TGI (UACC-62 melanoma)
81 µM: TGI (TK-10 renal)
19.4 µM: TGI (SK-MEL-5 melanoma)
25.6 µM: TGI (SN12C renal)
26.5 µM: TGI (A549 NSCLC)
14.6 µM: TGI (HCT-116 colon)
6.62 µM: TGI (SF-295 CNS)
5.8 µM: TGI (A498 renal)

COc1ccc2c(c1)C(=O)/C(=C/c1cccc(OCC(=O)c3ccccc3)c1)O2
38.1 µM: TGI (SF-295 CNS)
28.1 µM: TGI (SK-MEL-5 melanoma)
31 µM: TGI (A498 renal)
inactive: GI50 (A498 renal) 17.3 µM | GI50 (A549 NSCLC) 4.93 µM | GI50 (HCT-116 colon) 1.53 µM | GI50 (IGROV1 ovarian) 3.66 µM | GI50 (LOX IMVI melanoma) 2.83 µM | GI50 (SF-295 CNS) 20 µM | GI50 (SK-MEL-5 melanoma) 14.3 µM | GI50 (SN12C renal) 6.15 µM | GI50 (TK-10 renal) 2.45 µM | GI50 (UACC-62 melanoma) 13.4 µM
2.96 µM: TGI (HCT-116 colon)
24.9 µM: TGI (A549 NSCLC)
5.5 µM: TGI (TK-10 renal)
13.3 µM: TGI (IGROV1 ovarian)
27 µM: TGI (UACC-62 melanoma)
9.54 µM: TGI (LOX IMVI melanoma)
25.6 µM: TGI (SN12C renal)

CC(=O)Oc1c(C)c(-c2ccccc2)c(C)c(-c2ccccc2)c1C(=S)c1ccccc1
> 100 µM: TGI (A498 renal) | TGI (A549 NSCLC) | TGI (HCT-116 colon) | TGI (IGROV1 ovarian) | TGI (LOX IMVI melanoma) | TGI (SF-295 CNS) | TGI (SK-MEL-5 melanoma) | TGI (SN12C renal) | TGI (TK-10 renal) | TGI (UACC-62 melanoma)

COc1ccc(C=O)cc1O[Si](C)(C)C(C)(C)C
> 100 µM: TGI (A498 renal) | TGI (A549 NSCLC) | TGI (HCT-116 colon) | TGI (IGROV1 ovarian) | TGI (LOX IMVI melanoma) | TGI (SF-295 CNS) | TGI (SK-MEL-5 melanoma) | TGI (SN12C renal) | TGI (TK-10 renal) | TGI (UACC-62 melanoma)

COC(=O)C(=O)CC(=O)CCn1[nH]c(=O)c(Cl)c(Cl)c1=O
> 100 µM: TGI (A498 renal) | TGI (A549 NSCLC) | TGI (HCT-116 colon) | TGI (IGROV1 ovarian) | TGI (LOX IMVI melanoma) | TGI (SF-295 CNS) | TGI (SK-MEL-5 melanoma) | TGI (SN12C renal) | TGI (TK-10 renal) | TGI (UACC-62 melanoma)

O=C1NC(=S)S/C1=C/c1ccc2c(c1)OCO2
inactive: GI50 (A498 renal) 28.7 µM | GI50 (A549 NSCLC) > 100 µM | GI50 (HCT-116 colon) > 100 µM | GI50 (IGROV1 ovarian) 27.3 µM | GI50 (LOX IMVI melanoma) > 100 µM | GI50 (SF-295 CNS) 88.3 µM | GI50 (SK-MEL-5 melanoma) > 100 µM | GI50 (SN12C renal) > 100 µM | GI50 (TK-10 renal) > 100 µM | GI50 (UACC-62 melanoma) > 100 µM
> 100 µM: TGI (A498 renal) | TGI (A549 NSCLC) | TGI (HCT-116 colon) | TGI (IGROV1 ovarian) | TGI (LOX IMVI melanoma) | TGI (SF-295 CNS) | TGI (SK-MEL-5 melanoma) | TGI (SN12C renal) | TGI (TK-10 renal) | TGI (UACC-62 melanoma)

NCCCNCCS
> 100 µM: TGI (A498 renal) | TGI (A549 NSCLC) | TGI (HCT-116 colon) | TGI (IGROV1 ovarian) | TGI (LOX IMVI melanoma) | TGI (SF-295 CNS) | TGI (SK-MEL-5 melanoma) | TGI (SN12C renal) | TGI (TK-10 renal) | TGI (UACC-62 melanoma)

Nc1n[nH]c2cccc(C#Cc3cccc(NC(=O)c4cccc(C(F)(F)F)c4)c3)c12
4.31 µM: TGI (IGROV1 ovarian)
13.7 µM: TGI (TK-10 renal)
3.41 µM: TGI (LOX IMVI melanoma)
10.5 µM: TGI (SF-295 CNS)
5.57 µM: TGI (A498 renal)
inactive: GI50 (A498 renal) 2.41 µM | GI50 (A549 NSCLC) 4.84 µM | GI50 (HCT-116 colon) 0.855 µM | GI50 (IGROV1 ovarian) 1.53 µM | GI50 (LOX IMVI melanoma) 1.53 µM | GI50 (SF-295 CNS) 2.68 µM | GI50 (SK-MEL-5 melanoma) 4.13 µM | GI50 (SN12C renal) 4.09 µM | GI50 (TK-10 renal) 5.61 µM | GI50 (UACC-62 melanoma) 2.54 µM
4.61 µM: TGI (HCT-116 colon)
18.6 µM: TGI (A549 NSCLC)
14.8 µM: TGI (SK-MEL-5 melanoma)
17.3 µM: TGI (SN12C renal)
11.4 µM: TGI (UACC-62 melanoma)

CNC(=O)OCc1nc(SSC(C)(C)C)n(C)c1COC(=O)NC
16.5 µM: TGI (SK-MEL-5 melanoma)
20.4 µM: TGI (A498 renal)
22.9 µM: TGI (IGROV1 ovarian)
28 µM: TGI (A549 NSCLC)
13.7 µM: TGI (SN12C renal)
8.61 µM: TGI (LOX IMVI melanoma)
5.09 µM: TGI (UACC-62 melanoma)
3.26 µM: TGI (HCT-116 colon)
31.7 µM: TGI (SF-295 CNS)
13 µM: TGI (TK-10 renal)

CCN(CC)CCCC(CCl)Nc1ccnc2cc(Cl)ccc12 (stereo not given)
inactive: GI50 (A498 renal) 24.2 µM and 22 µM | GI50 (A549 NSCLC) 20 µM and 27 µM | GI50 (HCT-116 colon) 9.81 µM and 6.94 µM | GI50 (IGROV1 ovarian) 70.5 µM and 69.1 µM | GI50 (LOX IMVI melanoma) 8.43 µM and 8.53 µM | GI50 (SF-295 CNS) 13.1 µM and 12.6 µM | GI50 (SK-MEL-5 melanoma) 10.3 µM and 13 µM | GI50 (SN12C renal) 52.1 µM and 48 µM | GI50 (TK-10 renal) 10.1 µM and 14.1 µM | GI50 (UACC-62 melanoma) 20 µM and 6.69 µM
> 100 µM: TGI (IGROV1 ovarian) | TGI (SN12C renal)
64.3 µM and 51.1 µM: TGI (A498 renal)
22.2 µM and 29.4 µM: TGI (TK-10 renal)
38.7 µM and 34.8 µM: TGI (UACC-62 melanoma)
25.2 µM and 30.4 µM: TGI (HCT-116 colon)
55 µM and > 100 µM: TGI (A549 NSCLC)
42.3 µM and 31.4 µM: TGI (LOX IMVI melanoma)
23.5 µM and 28.6 µM: TGI (SK-MEL-5 melanoma)
26.3 µM and 28.6 µM: TGI (SF-295 CNS)

Source: PubChem BioAssay (NCI)
